# Source: patent publication US10759740B2, “Antibacterial agents” (Rutgers, The State University of New Jersey, priority 2016, dated 2020)
# What was measured:
# [1] = test system: Escherichia coli O157:H7; experiment: Broth microdilution assay (MIC); assay type: cell-based; conditions: BHI broth, 37° C., 24 h, no visible growth
# Description: (§1) From the frozen stock (−80° C.), bacteria were inoculated into brain-hear infusion (BHI) agar (Becton Dickinson, Franklin Lakes, N.J.) and propagated under aerobic conditions at 37° C. for 24 h. After the incubation, one colony of each bacterial strain was transferred to BHI broth (Becton Dickinson, Franklin Lakes, N.J.) and sub-cultured at least twice into BHI before being used in experiments.
# (§2) The minimal inhibitory concentration (MIC) of CAms were identified using a broth microdilution assay modified from previous studies. Briefly, the stock solutions of CAMs were first prepared by dissolving in double-distilled water (ddH2O) and then diluted in BHI broth at pre-determined concentrations. Further serial 2-fold dilutions were performed in a 96-well microplate (Becton Dickinson, Franklin Lakes, N.J.) with BHI broth. The inoculum concentration was adjusted to 5×10^6 CFU/mL with ultraviolet-visible (UV-vis) spectroscopy at 600 nm. An equal volume (100 μL) of bacterial suspension was added to each microplate well with a final volume of 200 μL. Plates were incubated at 37° C. for 24 h under aerobic conditions. The lowest CAm concentration that yielded no visible growth was recorded as the MIC. Cetyltrimethylammonium bromide (CTAB), a cationic amphiphile, served as a positive control that could mimic the proposed bactericidal mechanism of the newly synthesized tartaric acid-based compounds.
# (§3) CAms were evaluated against five selected pathogenic microorganisms, including Gram-positive bacteria (i.e., S. aureus and L. monocytogenes) and Gram-negative bacteria (i.e., E. coli, S. typhimurium, and P. aeruginosa), using a turbidity-based microdilution method. MICs were taken as the lowest concentrations that inhibited the visible bacterial growth. […] The higher MIC values for the Gram-negative bacteria could be attributed to the presence of an additional lipopolysaccharide layer, which forms a hydrophilic barrier that could prevent penetration of the highly hydrophobic CAms.
# [2] = test system: Listeria monocytogenes Scott A; experiment: Broth microdilution assay (MIC); assay type: cell-based; conditions: BHI broth, 37° C., 24 h, no visible growth
# Description: as §1, §2, §3
# [3] = test system: Pseudomonas aeruginosa ATCC 15442; experiment: Broth microdilution assay (MIC); assay type: cell-based; conditions: BHI broth, 37° C., 24 h, no visible growth
# Description: as §1, §2, §3
# [4] = test system: Staphylococcus aureus ATCC 13565; experiment: Broth microdilution assay (MIC); assay type: cell-based; conditions: BHI broth, 37° C., 24 h, no visible growth
# Description: as §1, §2, §3
# [5] = test system: Salmonella enterica serovar typhimurium; experiment: Broth microdilution assay (MIC); assay type: cell-based; conditions: BHI broth, 37° C., 24 h, no visible growth
# Description: as §1, §2
# CAms were evaluated against five selected pathogenic microorganisms, including Gram-positive bacteria (i.e., S. aureus and L. monocytogenes) and Gram-negative bacteria (i.e., E. coli, S. typhimurium, and P. aeruginosa), using a turbidity-based microdilution method. MICs were taken as the lowest concentrations that inhibited the visible bacterial growth.
# [6] = test system: L. gasseri biofilm; experiment: Minimum biofilm bactericidal concentration (MBC-B); assay type: cell-based, Lactobacillus gasseri; conditions: pre-formed biofilm, ≥3 log reduction
# Description: G. vaginalis ATCC 14019 strain was grown overnight in Brain Heart Infusion broth (Difco, Sparks, Md.) supplemented with 3% horse serum (sBHI) (JRH Biosciences, KS), while BHI supplemented with 1% glucose (BHIG) was used for biofilm formation assays. Each experiment using G. vaginalis was performed anaerobically (10% hydrogen, 5% carbon dioxide, and 85% nitrogen) within anaerobic glove boxes (Coy Laboratory Products, Inc., Grass Lake, Mich., USA). Three species of vaginal Lactobacillus were used in this study to evaluate the possible harmful effects of CAms on beneficial bacteria: Lactobacillus plantarum ATCC 39268, Lactobacillus rhamnosus 160 (provided by Dr. Aroutcheva, Rush University Medical Center) and Lactobacillus gasseri ATCC 33323; all were grown for 18-24 h in DeMan, Rogosa and Sharpe broth (MRS Difco B D, Franklin Lakes, N.J., USA) under aerobic conditions at 37° C. For lactobacilli biofilm formation, MRS broth supplemented with 1% glucose and 2% sucrose (Fisher Scientific, Waltham, Mass., USA) was utilized.
# This assay was performed according to Algburi et al. (Algburi et al., 2015. Path Dis 73(5)) with minor modifications: the overnight-grown G. vaginalis was diluted to approximately 10^7 CFU/ml. For the biofilm formation assay, aliquots of 200 μl were added into a 96-well tissue culture microplate, sealed by amplification tape (Nalge Nunc International, Rochester, N.Y., USA) and incubated for 24-36 h at 37° C. After incubation, the planktonic cells were removed by gently washing the biofilm twice with 200 μl of fresh broth. The biofilm was then treated with 200 μl of a predetermined concentration of the tested compound. The microplate was incubated for 24 h at 37° C. under anaerobic conditions. After incubation, the antimicrobials (supernatant) were discarded and the biofilm was washed twice with fresh BHIG broth. The biofilm was then disrupted by vigorous pipetting, in order to determine the number of biofilm-associated cells using the spot plate method.
# [7] = test system: biofilms of G. vaginalis; experiment: Checkerboard assay, biofilm cells; assay type: cell-based, Gardnerella vaginalis; conditions: for MBC-B of CAm in combination with metronidazole: 24 h
# Description: For biofilm formation, the overnight culture of G. vaginalis was diluted to approximately 10^7 CFU/ml and 200 μl was transferred into a 96-well tissue culture microplate and incubated anaerobically at 37° C. for 24-36 h. Following biofilm formation and removal of non-adherent cells by washing the biofilm twice with BHIG, each antimicrobial was diluted twofold separately with BHIG broth into two 96-white deep-well microplates. From each dilution of antimicrobial B, 125 μL was added horizontally over 125 μL of antimicrobial A (see FIG. 1 of Algburi et al., 2015. Path Dis 73(5)). From each combination, 200 μL samples were added to the biofilm in sequence, and the microplate was incubated for 24 h at 37° C. under anaerobic conditions. The spot plate method was utilized for counting the number of CFU/ml and evaluating the bactericidal activity (MBC-B) of each antimicrobial combination against biofilm-associated G. vaginalis. Isobolograms were used to analyze the nature of antimicrobial interaction, which is classified as synergistic, antagonistic or additive activity against the planktonic and biofilm cells.
# Isobolograms were used to compare the MIC and MBC-B values of each antimicrobial alone with its MIC and MBC-B values in combination with other antimicrobials. The point on the axis (X) refers to MIC or MBC-B values of the first antimicrobial with the coordinates (0, x), and the point on the axis (Y) represents the MIC or MBC-B values of the second antimicrobial with the coordinates (y, 0) when they used alone. The two MIC or MBCs-B values are connected by a dashed line (Turovskiy Y, Chikindas M L. 2011 Probiotics Antimicrob Proteins 3:144-149). The MICs or MBCs-B of each antimicrobial combination are plotted as dots on the graph. Results are expressed according to the locations of these dots from the line that connects MICs or MBCs-B of the first and second antimicrobials. When MICs or MBCs-B values are located under the line, the two combining antimicrobials are synergized, but antagonized against the tested microorganism when these dots of interaction are above. An additive effect is observed when these dots are located on the line.
SMILES,MIC E. coli (G−) [1] [µg/mL],MIC L. monocytogenes (G+) [2] [µg/mL],MIC P. aeruginosa (G−) [3] [µg/mL],MIC S. aureus (G+) [4] [µg/mL],MIC S. typhimurium (G−) [5] [µg/mL],MBC-B L. gasseri [6] [µM],MBC-B of CAm when used alone [7] [µM],MBC-B of CAm in combination with metronidazole [7] [µM]
CCCCCCCCCCOC(C(=O)NCCN)C(OCCCCCCCCCC)C(=O)NCCN.Cl.Cl (stereo not drawn) [5b],3.9,0.95,3.9,0.95,3.9,>850,340,25.7
CCCCCCCC(=O)OC(C(=O)NCCN)C(OC(=O)CCCCCCC)C(=O)NCCN.Cl.Cl (stereo not drawn) [8a],62.5,31.2,31.2,31.2,62.5,>890,92.7,26.9
CCCCCCCCCC(=O)OC(C(=O)NCCN)C(OC(=O)CCCCCCCCC)C(=O)NCCN.Cl.Cl (stereo not drawn) [8b],3.9,1.9,3.9,1.9,3.9,810,67.7,6.3
